Laboratory results published in patent publication US8012963B2, “3,4-dihydro-2H-benzo[1,4]oxazine and thiazine derivatives as CETP inhibitors” (Janssen Pharmaceutica N.V., priority 2006, dated 2011).
pIC50: −log10 of the molar value. Several values for one entry are separate records, joined by “and”; a condition that tells them apart may be missing. Identical values can stand only once.

Target: T1, CETP (Homo sapiens, UniProt P11597)
T1 construct: from tissue; host or cells: human plasma from normal volunteers
T1 sequence (P11597 18-493): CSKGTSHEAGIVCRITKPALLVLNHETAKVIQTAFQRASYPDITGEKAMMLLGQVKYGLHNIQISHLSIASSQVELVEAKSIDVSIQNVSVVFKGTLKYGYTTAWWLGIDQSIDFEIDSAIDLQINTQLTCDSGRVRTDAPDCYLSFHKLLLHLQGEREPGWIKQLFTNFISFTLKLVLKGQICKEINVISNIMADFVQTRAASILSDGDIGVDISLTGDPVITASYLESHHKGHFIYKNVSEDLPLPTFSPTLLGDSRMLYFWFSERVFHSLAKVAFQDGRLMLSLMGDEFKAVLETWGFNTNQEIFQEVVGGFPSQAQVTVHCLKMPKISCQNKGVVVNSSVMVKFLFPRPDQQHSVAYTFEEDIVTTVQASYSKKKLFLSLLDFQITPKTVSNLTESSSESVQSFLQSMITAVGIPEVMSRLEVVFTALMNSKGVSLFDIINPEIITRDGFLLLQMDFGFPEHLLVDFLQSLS
Assay: CETP in vitro assay ([3H]CE-HDL transfer, Amersham kit TRKQ7005; modified protocol in human plasma)
Assay type: biochemical
Details: multiple values = multiple measurements; for % Inhibition @ 1 μM / inhibition at 1 µM: 1 μM compound
In short: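 Normal-volunteer human plasma was incubated ≥4 hr at 37 °C with approx. 25 μg/ml [3H]CE-HDL and compound in DMSO, with a 4 °C blank for non-specific transfer. HDL was separated by Dextralip/MgCl2 precipitation and centrifugation, then supernatant radioactivity counted. IC50 came from % control versus concentration.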

| Compound | % Inhibition @ 1 μM (1 µM) | pIC50 | inhibition at 1 µM [%] | also measured |
| --- | --- | --- | --- | --- |
| CCOc1cccc(C2COc3c(-c4cccc(OC(F)(F)F)c4)cccc3N2CC(O)C(F)(F)F)c1 (stereo not drawn) [Compound 17, 3-[3-(3-Ethoxy-phenyl)-8-(3-trifluoromethoxy-phenyl)-2,3-dihydro-benzo[1,4]oxazin-4-yl]-1,1,1-trifluoro-propan-2-ol] | 55% and 56% | 6.31 |  |  |
| OCCCC1COc2c(-c3cccc(OC(F)(F)F)c3)cccc2N1CC(O)C(F)(F)F (stereo not drawn) [Compound 54, 3-[4-(3,3,3-Trifluoro-2-hydroxy-propyl)-8-(3-trifluoromethoxy-phenyl)-3,4-dihydro-2H-benzo[1,4]oxazin-3-yl]-propan-1-ol] | 1% |  |  |  |
| C=CCC1COc2c(-c3cccc(OC(F)(F)F)c3)cccc2N1CC(O)C(F)(F)F (stereo not drawn) [Compound 51, 3-[3-Allyl-8-(3-trifluoromethoxy-phenyl)-2,3-dihydro-benzo[1,4]oxazin-4-yl]-1,1,1-trifluoro-propan-2-ol] | 0% |  |  |  |
| O[C@@H](CN1c2cccc(-c3cc(F)cc(F)c3)c2OC[C@@H]1c1cccc(OC(F)(F)C(F)F)c1)C(F)(F)F [Compound 72, 4H-1,4-Benzoxazine-4-ethanol, 8-(3,5-difluorophenyl)-2,3-dihydro-3-[3-(1,1,2,2-tetrafluoroethoxy)phenyl]-α-(trifluoromethyl)-, (3S,αS)—] |  | 7.30 | 100 |  |
| OC(CN1c2cccc(-c3cccc(OC(F)(F)F)c3)c2OCC1c1ccc2c(c1)OC(F)(F)O2)C(F)(F)F (stereo not drawn) [Compound 13, 3-[3-(2,2-Difluoro-benzo[1,3]dioxol-5-yl)-8-(3-trifluoromethoxy-phenyl)-2,3-dihydro-benzo[1,4]oxazin-4-yl]-1,1,1-trifluoro-propan-2-ol] |  | 6.98 and 6.36 | 48 |  |
| OC(CN1c2cccc(-c3cccc(OC(F)(F)F)c3)c2OCC1c1ccoc1)C(F)(F)F (stereo not drawn) [Compound 105, 1,1,1-Trifluoro-3-[3-furan-3-yl-8-(3-trifluoromethoxy-phenyl)-2,3-dihydro-benzo[1,4]oxazin-4-yl]-propan-2-ol] | 2% |  |  |  |
| CCc1ccsc1C1COc2c(-c3cccc(OC(F)(F)F)c3)cccc2N1CC(O)C(F)(F)F (stereo not drawn) [Compound 87, 3-[3-(3-Ethyl-thiophen-2-yl)-8-(3-trifluoromethoxy-phenyl)-2,3-dihydro-benzo[1,4]oxazin-4-yl]-1,1,1-trifluoro-propan-2-ol] |  |  | 8 |  |
| O[C@@H](CN1c2cccc(-c3cc(F)c(F)c(F)c3)c2OC[C@@H]1c1cccc(OC(F)(F)F)c1)C(F)(F)F [Compound 82, 4H-1,4-Benzoxazine-4-ethanol, 2,3-dihydro-3-[3-(trifluoromethoxy)phenyl]-8-[3,4,5-(trifluoro)phenyl]-α-(trifluoromethyl)-, (3S,αS)—] | 96% | 7.03 | 91 |  |
| CC(C)(C)[Si](C)(C)OCCCN1c2cccc(-c3cccc(OC(F)(F)F)c3)c2OCC1c1cccc(OC(F)(F)C(F)F)c1 (stereo not drawn) [Compound 25, 4-[3-(tert-Butyl-dimethyl-silanyloxy)-propyl]-3-[3-(1,1,2,2-tetrafluoro-ethoxy)-phenyl]-8-(3-trifluoromethoxy-phenyl)-3,4-dihydro-2H-benzo[1,4]oxazine] |  |  | 13 |  |
| COc1ccc(C2COc3c(-c4cccc(OC(F)(F)F)c4)cccc3N2CC(O)C(F)(F)F)s1 (stereo not drawn) [Compound 63, 1,1,1-Trifluoro-3-[3-(5-methoxy-thiophen-2-yl)-8-(3-trifluoromethoxy-phenyl)-2,3-dihydro-benzo[1,4]oxazin-4-yl]-propan-2-ol] | 17% |  |  |  |
| COC(=O)N1c2cccc(-c3cccc(OC(F)(F)F)c3)c2OCC1c1cccc(OC(F)(F)C(F)F)c1 (stereo not drawn) [Compound 20, 3-[3-(1,1,2,2-Tetrafluoro-ethoxy)-phenyl]-8-(3-trifluoromethoxy-phenyl)-2,3-dihydro-benzo[1,4]oxazine-4-carboxylic acid methyl ester] |  |  | 16 |  |
| CCOc1cccc(C2COc3c(-c4cccc(OC(F)(F)F)c4)cccc3N2CC(O)C(F)(F)F)c1 (stereo not drawn) [Compound 18] | 8% |  |  |  |
| OC(CN1c2cccc(-c3cccc(OC(F)(F)F)c3)c2OCC1c1cccc(OC(F)(F)C(F)F)c1)C(F)(F)F (single isomer, unassigned) [Compound 1, 1,1,1-Trifluoro-3-[3-[3-(1,1,2,2-tetrafluoro-ethoxy)-phenyl]-8-(3-trifluoromethoxy-phenyl)-2,3-dihydro-benzo[1,4]oxazin-4-yl]-propan-2-ol] | 96% | 7.28 and 7.42 |  |  |
| CC(C)(C)C(=O)CC1COc2c(-c3cccc(OC(F)(F)F)c3)cccc2N1CC(O)C(F)(F)F (stereo not drawn) [Compound 57, 3,3-Dimethyl-1-[4-(3,3,3-trifluoro-2-hydroxy-propyl)-8-(3-trifluoromethoxy-phenyl)-3,4-dihydro-2H-benzo[1,4]oxazin-3-yl]-butan-2-one] | 0% |  |  |  |
| O[C@H](CN1c2cccc(-c3cccc(OC(F)(F)F)c3)c2OC[C@@H]1c1cccc(OC(F)(F)C(F)F)c1)C(F)(F)F [Compound 4, 4H-1,4-Benzoxazine-4-ethanol, 2,3-dihydro-3-[3-(1,1,2,2-tetrafluoroethoxy)phenyl]-8-[3-(trifluoromethoxy)phenyl]-α-(trifluoromethyl)-, (3S,αR)—] |  |  | 26 |  |
| CCc1ccsc1C1COc2c(-c3cccc(OC(F)(F)F)c3)cccc2N1CC(O)C(F)(F)F (stereo not drawn) [Compound 88, 3-[3-(3-Ethyl-thiophen-2-yl)-8-(3-trifluoromethoxy-phenyl)-2,3-dihydro-benzo[1,4]oxazin-4-yl]-1,1,1-trifluoro-propan-2-ol] | 12% |  |  |  |
| OC[C@@H](O)CN1c2cccc(-c3cccc(OC(F)(F)F)c3)c2OC[C@@H]1c1cccc(OC(F)(F)C(F)F)c1 [Compound 47, 1,2-Propanediol, 3-[(3S)-2,3-dihydro-3-[3-(1,1,2,2-tetrafluoroethoxy)phenyl]-8-[3-(trifluoromethoxy)phenyl]-4H-1,4-benzoxazin-4-yl]-, (2S)—] |  |  | 27 |  |
| COC(=O)N(C)CCN1c2cccc(-c3cccc(OC(F)(F)F)c3)c2OCC1c1cccc(OC(F)(F)C(F)F)c1 (stereo not drawn) [Compound 42, Methyl-{2-[3-[3-(1,1,2,2-tetrafluoro-ethoxy)-phenyl]-8-(3-trifluoromethoxy-phenyl)-2,3-dihydro-benzo[1,4]oxazin-4-yl]-ethyl}-carbamic acid methyl ester] |  |  | 8 |  |
| C[C@@H](O)CN1c2cccc(-c3cccc(OC(F)(F)F)c3)c2OC[C@@H]1c1cccc(OC(F)(F)C(F)F)c1 [Compound 35, 4H-1,4-Benzoxazine-4-ethanol, 2,3-dihydro-α-methyl-3-[3-(1,1,2,2-tetrafluoroethoxy)phenyl]-8-[3-(trifluoromethoxy)phenyl]-, (3S,αR)—] | 52% | 7.59 and 6.93 and 6.92 | 47 |  |
| OC(CN1c2cccc(-c3cccc(OC(F)(F)F)c3)c2OCC1c1ccco1)C(F)(F)F (stereo not drawn) [Compound 90, 1,1,1-Trifluoro-3-[3-furan-2-yl-8-(3-trifluoromethoxy-phenyl)-2,3-dihydro-benzo[1,4]oxazin-4-yl]-propan-2-ol] |  |  |  | % Inhibition @ 1 μM: 17% |
| OC(CN1c2cccc(-c3cccc(OC(F)(F)F)c3)c2OCC1c1cccc(OC(F)(F)C(F)F)c1)C(F)(F)F (single isomer, unassigned) [Compound 2, 1,1,1-Trifluoro-3-[3-[3-(1,1,2,2-tetrafluoro-ethoxy)-phenyl]-8-(3-trifluoromethoxy-phenyl)-2,3-dihydro-benzo[1,4]oxazin-4-yl]-propan-2-ol] | 73% | 6.56 and 6.88 |  |  |
| COc1ccsc1C1COc2c(-c3cccc(OC(F)(F)F)c3)cccc2N1CC(O)C(F)(F)F (stereo not drawn) [Compound 61, 1,1,1-Trifluoro-3-[3-(3-methoxy-thiophen-2-yl)-8-(3-trifluoromethoxy-phenyl)-2,3-dihydro-benzo[1,4]oxazin-4-yl]-propan-2-ol] | 3% |  |  |  |
| O[C@@H](CN1c2cccc(-c3cc(F)cc(F)c3)c2OC[C@@H]1c1cccc(OC(F)(F)F)c1)C(F)(F)F [Compound 80, 4H-1,4-Benzoxazine-4-ethanol, 2,3-dihydro-3-[3-(trifluoromethoxy)phenyl]-8-[3,5-(difluoro)phenyl]-α-(trifluoromethyl)-, (3S,αS)—] |  | 6.71 | 100 |  |
| O=C(CN1c2cccc(-c3cccc(OC(F)(F)F)c3)c2OCC1c1ccc2c(c1)OC(F)(F)O2)C(F)(F)F (stereo not drawn) [Compound 19, 3-[3-(2,2-Difluoro-benzo[1,3]dioxol-5-yl)-8-(3-trifluoromethoxy-phenyl)-2,3-dihydro-benzo[1,4]oxazin-4-yl]-1,1,1-trifluoro-propan-2-one] |  |  | 0 |  |
| COc1ccc(C2COc3c(-c4cccc(OC(F)(F)F)c4)cccc3N2CC(O)C(F)(F)F)s1 (stereo not drawn) [Compound 62, 1,1,1-Trifluoro-3-[3-(5-methoxy-thiophen-2-yl)-8-(3-trifluoromethoxy-phenyl)-2,3-dihydro-benzo[1,4]oxazin-4-yl]-propan-2-ol] |  |  | 19 |  |
| OC(CN1c2cccc(-c3cccc(F)c3)c2OCC1c1cccc(OC(F)(F)C(F)F)c1)C(F)(F)F (single isomer, unassigned) [Compound 66, 1,1,1-Trifluoro-3-{8-(3-fluoro-phenyl)-3-[3-(1,1,2,2-tetrafluoro-ethoxy)-phenyl]-2,3-dihydro-benzo[1,4]oxazin-4-yl}-propan-2-ol] | 104% and 79% and 107% |  |  |  |
